According to patent publication US20040152695A1, “Pharmaceutical composition of 1-(3-hydroxy-4-methoxyphenyl)-4-methyl-5-ethyl-7,8-dimethoxy-5H-2,3-benzodiazepine and uses thereof” (Vela Pharmaceuticals, Inc., priority 2002, published 2004):

Assays:
[1] = test system: aggression in mice; settings: cited from earlier work
[2] = test system: muricide in rats; settings: cited from earlier work
[3] = test system: anti-noradrenergic effects; settings: cited from earlier work
[4] = test system: central BZ receptors; settings: cited from earlier work
[5] = target: peripheral BZ receptors (Homo sapiens, UniProt P30536); settings: cited from earlier work
Chain of peripheral BZ receptors (P30536 whole entry): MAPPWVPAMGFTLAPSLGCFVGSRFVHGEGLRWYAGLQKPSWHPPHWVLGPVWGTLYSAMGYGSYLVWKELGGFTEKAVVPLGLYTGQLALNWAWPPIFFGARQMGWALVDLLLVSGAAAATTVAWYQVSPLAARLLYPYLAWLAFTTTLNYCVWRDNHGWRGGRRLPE

[6] = target: T1, TXA2 receptor (Homo sapiens, UniProt P21731); settings: reference competitor in [3H]SQ 29,548 assay; cited from earlier work
T1 construct: was determined via the human platelet-based assay of Hedberg et al; from tissue; host or cells: human platelets
T1 sequence (P21731 1-343): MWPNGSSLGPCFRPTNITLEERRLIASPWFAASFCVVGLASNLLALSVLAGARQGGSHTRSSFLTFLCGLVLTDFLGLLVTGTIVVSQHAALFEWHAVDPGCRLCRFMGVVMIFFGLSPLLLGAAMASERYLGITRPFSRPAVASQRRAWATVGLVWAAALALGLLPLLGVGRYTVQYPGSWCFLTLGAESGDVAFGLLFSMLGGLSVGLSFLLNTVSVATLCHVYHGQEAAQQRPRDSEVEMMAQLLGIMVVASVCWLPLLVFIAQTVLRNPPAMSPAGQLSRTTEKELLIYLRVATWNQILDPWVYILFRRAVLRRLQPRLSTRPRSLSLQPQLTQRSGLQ

[7] = test system: DSS-induced colitis in mice; experiment: Dextran sulfate sodium induced colitis: mouse model of inflammatory bowel disease; assay type: in vivo; settings: for % of normal length: colon length; for Mean DAIWT ± SEM: DAI without weight loss parameter; for Mean DAI ± SEM: mice
[8] = target: T2, LTB4 receptor (Cavia porcellus, UniProt H0VYV8); experiment: Inhibition of [3H]LTB4 binding, guinea pig spleen membrane assay; settings: 10 μM test compound; for LTB4 % inhib @ 10 μm: 1 nM [3H]LTB4; for inhibition at 10 µM: 1 nM [3H]LTB4, read-out: LTB4 % inhib @ 10 μm
T2 construct: 1.0 mg/mL of the Guinea pig spleen membrane preparation; from tissue; host or cells: guinea pig spleen membranes
T2 sequence (H0VYV8 1-348): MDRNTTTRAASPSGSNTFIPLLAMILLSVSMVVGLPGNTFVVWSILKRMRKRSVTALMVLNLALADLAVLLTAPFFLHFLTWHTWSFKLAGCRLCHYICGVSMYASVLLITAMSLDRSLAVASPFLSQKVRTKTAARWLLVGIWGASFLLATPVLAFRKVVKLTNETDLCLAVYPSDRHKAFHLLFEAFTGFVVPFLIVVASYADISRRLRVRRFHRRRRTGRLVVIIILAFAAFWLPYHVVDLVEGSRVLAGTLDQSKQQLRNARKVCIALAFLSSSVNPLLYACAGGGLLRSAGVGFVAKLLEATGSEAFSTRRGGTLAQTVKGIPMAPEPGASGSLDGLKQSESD
Protocol: The ability of 1-(3-hydroxy-4-methoxyphenyl)-4-methyl-5-ethyl-7,8-dimethoxy-5H-2,3-benzodiazepine to inhibit [^3H]LTB4 binding to the LTB4 receptor was determined as follows using the guinea pig spleen membrane assay of Cheng et al., J. Pharmacol. Exp. Ther., 236(1), 126-132, 1986, the entire disclosure of which is incorporated herein by reference.
Reactions were carried out in a phosphate buffer (pH 7.4) containing NaCl, MgCl2, EDTA, and bacitracin. The reaction volume of 150 μL containing 1.0 mg/mL of the Guinea pig spleen membrane preparation and 1 nM [^3H]LTB4, with or without a candidate inhibitor, was incubated at 0-4° C. for 2 hours. Candidate inhibitors included the compounds listed in Table 1 and unlabeled LTB4 as a control. The reaction was terminated by rapid vacuum filtration onto glass fiber filters. The filter was washed with cold buffer, dried and placed in a scintillation vial. Radioactivity trapped onto the filters was determined and compared to control values in order to ascertain any interactions of the test compound with the LTB4 binding site.

[9] = test system: narcosis in mice; settings: cited from earlier work
[10] = target: T1, TXA2 receptor; experiment: TXA2 binding assay ([3H]SQ 29,548), human platelet-based; settings: human platelets
Protocol: The ability of 1-(3-hydroxy-4-methoxyphenyl)-4-methyl-5-ethyl-7,8-dimethoxy-5H-2,3-benzodiazepine to inhibit the binding of [^3H]SQ 29,548 (30-60 Ci/mmol) was determined via the human platelet-based assay of Hedberg et al., “Characterization of [^3H]SQ 29,548 as a High Affinity Radioligand Binding to Thromboxane A2—Receptors in Human Platelets.”, J. Pharmacol. Exp. Ther. 245: 786-792 (1988), with modifications. TXA2 is a very unstable molecule, thus a surrogate ligand of known affinity for the TXA2 receptor is required as a standard for determination of binding affinity of new potential TXA2 ligands. [^3H]SQ 29,548 is a ligand with known binding affinity for the TXA2 receptor. [^3H]SQ 29,548 has been employed as a TXA2 ligand in several published studies, is accepted as a TXA2 binding standard, and is thus useful as a standard in assessing the binding affinity of new compounds to the TXA2 receptor. […]
Reactions were carried out in a reaction mixture comprising 25 mM TRIS-HCl (pH 7.4) containing 138 mM NaCl, 5 mM KCl, 5 mM MgCl2, 5.5 mM dextrose, and 2 mM EDTA at 25° C. for 60 minutes. […] Radioactivity trapped onto the filters was determined and compared to control values in order to ascertain any interactions of test compound with the thromboxane A2 binding site.

## CCC1C(C)=NN=C(c2ccc(OC)c(OC)c2)c2cc(OC)c(O)cc21 (stereo not drawn) [Compound 1, 1-(3,4-dimethoxyphenyl)-4-methyl-5-ethyl-7-hydroxy-8-methoxy-5H-2,3-benzodiazepine]
[1]
  inhibition of aggression: 0%
[2]
  inhibition of muricide: 20%
[3]
  anti-noradrenergic effects: no effect

## CCC1C(C)=NN=C(c2ccc(OC)c(OC)c2)c2cc(OC)c(OC)cc21 (stereo not drawn) [tofisopam]
[4]
  interaction with central BZ receptors: does not interact
[5]
  binding to peripheral BZ receptors: binds only weakly

## Pinane-thromboxane
[6]
  Ki: 149 nM

## O=C(O)c1cc(/N=N/c2ccc(S(=O)(=O)Nc3ccccn3)cc2)ccc1O [Sulfasalazine, reference compound]
[7]; 300 mg/kg IP daily + DSS
  Colon shortening inhib. %: 30%
  Mean colon length CM ± SEM: 8.8 ± 0.29 CM
  Mean weight (g) ± SEM Day 0: 22.6 ± 0.2 g
  % weight change ± SEM Day 7: −0.6 ± 0.5%
  Mean weight (g) ± SEM Day 7: 22.4 ± 0.2 g
  % weight change ± SEM Day 8: −11.4 ± 1.4%
  Mean weight (g) ± SEM Day 8: 20.0 ± 0.4 g
  % weight change ± SEM Day 9: −17.7 ± 1.8%
  Mean weight (g) ± SEM Day 9: 18.6 ± 0.4 g
  % of normal length: 69.5%
[7]; 300 mg/kg daily + DSS
  weight loss as compared to the negative controls: no observed significant difference

## CCC1C(C)=NN=C(c2ccc(O)c(OC)c2)c2cc(OC)c(O)cc21 (stereo not drawn) [Compound 5, 1-(3-methoxy-4-hydroxyphenyl)-4-methyl-5-ethyl-7-hydroxy-8-methoxy-5H-2,3-benzodiazepine]
[8]
  LTB4 % inhib @ 10 μm: inactive
[1]
  inhibition of aggression: 28.6%
[2]
  inhibition of muricide: 20%
[3]
  anti-noradrenergic effects: measurable activity

## CCC1C(C)=NN=C(c2ccc(O)c(OC)c2)c2cc(OC)c(OC)cc21 (stereo not drawn) [Compound 3, 1-(3-methoxy-4-hydroxyphenyl)-4-methyl-5-ethyl-7,8-dimethoxy-5H-2,3-benzodiazepine]
[8]
  inhibition at 10 µM: 16.8%
[1]
  inhibition of aggression: 0%
[2]
  inhibition of muricide: 0%
[3]
  anti-noradrenergic effects: measurable activity
[9]
  narcosis-potentiating activity: demonstrate narcosis-potentiating activity

## CCC1C(C)=NN=C(c2ccc(OC)c(OC)c2)c2cc(O)c(OC)cc21 (stereo not drawn) [Compound 2, 1-(3,4-dimethoxyphenyl)-4-methyl-5-ethyl-7-methoxy-8-hydroxy-5H-2,3-benzodiazepine]
[8]
  inhibition at 10 µM: 36%

## CCC1C(C)=NN=C(c2ccc(OC)c(O)c2)c2cc(OC)c(OC)cc21 (racemic) [Compound 4, 1-(3-hydroxy-4-methoxyphenyl)-4-methyl-5-ethyl-7,8-dimethoxy-5H-2,3-benzodiazepine]
[8]
  inhibition at 10 µM: 64%
[10]
  inhibition at 10 µM: 25.9%
[7]; 16 mg/kg IP daily + DSS
  Mean colon length CM ± SEM: 8.9 ± 0.40 CM
  Mean weight (g) ± SEM Day 0: 24.6 ± 0.5 g
  % weight change ± SEM Day 7: +0.5 ± 2.2%
  Mean weight (g) ± SEM Day 7: 24.8 ± 0.8 g
  % weight change ± SEM Day 8: −1.7 ± 3.0%
  Mean weight (g) ± SEM Day 8: 24.3 ± 1.0 g
  % weight change ± SEM Day 9: −7.5 ± 4.3%
  Mean weight (g) ± SEM Day 9: 22.9 ± 1.4 g
  % of normal length: 70.2%
[7]; 16 mg/kg IP daily + DSS, listed as 1-(3-hydroxy-4-methoxy-phenyl)-4-methyl-5-ethyl-7,8-dimethoxy-5H-2,3-benzodiazep
  Colon shortening inhib. %: significantly inhibited colonic shortening
[7]; 16 mg/kg IP daily + DSS, listed as 1-(3-hydroxy-4-methoxyphenyl)-4-methyl-5-ethyl-7,8-dimethoxy-5H-2,3-benzodiazepi
  Colon shortening inhib. %: 32%
[7]; 32 mg/kg IP daily + DSS
  Colon shortening inhib. %: 14%
  Mean colon length CM ± SEM: 7.9 ± 0.08 CM
  Mean DAIWT ± SEM: 2.56 ± 0.27
  Mean weight (g) ± SEM Day 0: 24.8 ± 0.2 g
  % weight change ± SEM Day 7: −2.5 ± 1.7%
  Mean weight (g) ± SEM Day 7: 24.1 ± 0.5 g
  % weight change ± SEM Day 8: −9.1 ± 2.6%
  Mean weight (g) ± SEM Day 8: 22.5 ± 0.7 g
  % weight change ± SEM Day 9: −15.7 ± 4.1%
  Mean weight (g) ± SEM Day 9: 20.9 ± 1.0 g
  % of normal length: 62.3%
  Mean DAI ± SEM: 2.67 ± 0.36
[7]; 64 mg/kg IP daily + DSS
  Colon shortening inhib. %: 37%
  Mean colon length CM ± SEM: 9.2 ± 0.33 CM
  Mean DAIWT ± SEM: 2.00 ± 0.45
  Mean weight (g) ± SEM Day 0: 23.7 ± 0.2 g
  % weight change ± SEM Day 7: −2.7 ± 2.8%
  Mean weight (g) ± SEM Day 7: 23.0 ± 0.6 g
  % weight change ± SEM Day 8: −4.8 ± 4.3%
  Mean weight (g) ± SEM Day 8: 22.5 ± 0.9 g
  % weight change ± SEM Day 9: −9.7 ± 4.9%
  Mean weight (g) ± SEM Day 9: 21.3 ± 1.1 g
  % of normal length: 72.5%
  Mean DAI ± SEM: 2.06 ± 0.48
[7]; test compound groups (64, 32, 16 mg/kg) + DSS
  weight loss as compared to the negative controls: no observed significant difference

## CCC1C(C)=NN=C(c2ccc(OC)c(O)c2)c2cc(OC)c(O)cc21 (stereo not drawn) [Compound 6, 1-(3-hydroxy-4-methoxyphenyl)-4-methyl-5-ethyl-7-hydroxy-8-methoxy-5H-2,3-benzodiazepine]
[8]
  LTB4 % inhib @ 10 μm: inactive
